Test results taken from patent publication US20220408731A1, “MODIFIED ANTIMICROBIAL PEPTIDES” (priority 2021, published 2022).
Values after ≈ are worked out from the molar mass of the structure shown. Bridge positions count the residues as written; N and C are the ends. Square brackets hold non-standard residues; d marks the D form. Ends that are not written are not given here. Peptide text beside a SMILES is read from it. Dab = NCC[C@H](N)C(=O)O

What was measured:
[1] = system: Colletotrichum gloeosporioides
B. cinerea = experiment: Drop inoculation assay on detached Nicotiana benthamiana leaves (semi-in planta); format: in vivo, Botrytis cinerea; details: 48 h

Compound	Gray mold symptoms, drop inoculation assay (B. cinerea; peptide at 3 μM and 6 μM)	MIC (μM) (SFM + 2 mM CaCl2) (Botrytis cinerea) [µM]	MIC (μM) (SFM + 100 mM KCl) (Botrytis cinerea) [µM]	MIC (μM) (SFM + 100 mM NaCl) (Botrytis cinerea) [µM]	MIC (μM) SFM (Botrytis cinerea) [µM]	other results
C[C@@H](O)[C@H](NC(=O)[C@H](CS)NC(=O)[C@H](Cc1ccccc1)NC(=O)[C@H](CS)NC(=O)[C@H](CCCNC(=N)N)NC(=O)[C@H](CCCNC(=N)N)NC(=O)[C@H](CCCNC(=N)N)NC(=O)[C@H](Cc1ccccc1)NC(=O)CNC(=O)[C@H](CCCNC(=N)N)NC(=O)[C@H](CS)NC(=O)[C@H](CCCNC(=N)N)NC(=O)CN)C(=O)N[C@H](C(=O)N[C@@H](Cc1c[nH]cn1)C(=O)N[C@@H](CS)C(N)=O)[C@@H](C)O [GMA4AC, reference compound] (H-GRCRGFRRRCFCTTHC-NH2)	–	–	–	–	–	MIC, Alternaria alternata (Alternaria alternata): >12 µM; MIC, Cercospora sojina (Cercospora sojina): >12 µM; MIC, Colletotrichum gloeosporioides [1]: >12 µM
CC[C@H](C)[C@@H]1NC(=O)[C@H](CCCNC(=N)N)NC(=O)[C@@H](NC(=O)[C@H](CCCNC(=N)N)NC(=O)CNC(=O)[C@@H](N)CO)CSSC[C@@H](C(N)=O)NC(=O)[C@H](CC(N)=O)NC(=O)[C@H](CCCCN)NC(=O)[C@H]([C@@H](C)O)NC(=O)[C@H](Cc2c[nH]c3ccccc23)NC(=O)[C@H](Cc2ccccc2)NC(=O)[C@H](Cc2c[nH]c3ccccc23)NC(=O)[C@H](CCCNC(=N)N)NC(=O)[C@H](Cc2ccccc2)NC(=O)[C@H](CC(C)C)NC1=O [GMA1C_V2] (H-SGRCRILFRWFWTKNC-NH2; disulfide 4-16; N-terminus assumed)	completely abrogated gray mold symptoms	3	>12	3	1.5 to 3	Gray mold symptoms, drop inoculation assay (B. cinerea; peptide at 1.5 μM): more effective than GMA1C_V1
GACLKNRHSKHYGWFWYYRHCY-NH2 (cysteine pairing not given here) [GMAOe1C_V2]	completely abrogated gray mold symptoms	–	–	–	–	–
NCC[C@H](NC(=O)CNC(=O)[C@@H](N)Cc1ccccc1)C(=O)N[C@@H](CS)C(=O)N[C@@H](CCN)C(=O)NCC(=O)N[C@@H](Cc1ccccc1)C(=O)N[C@@H](CCN)C(=O)N[C@@H](CCN)C(=O)N[C@@H](CCN)C(=O)N[C@@H](CS)C(=O)N[C@@H](Cc1ccccc1)C(=O)N[C@@H](CS)C(=O)N[C@@H](Cc1c[nH]c2ccccc12)C(=O)N[C@@H](CCN)C(=O)N[C@@H](Cc1c[nH]c2ccccc12)C(=O)N[C@@H](CS)C(=O)O [GMA4C_V5, FG(Dab)C(Dab)GF(Dab)(Dab)(Dab)CFCW(Dab)WC] (H-FG[Dab]C[Dab]GF[Dab][Dab][Dab]CFCW[Dab]WC-OH; N-terminus assumed)	–	–	–	–	–	B. cinerea MIC (Botrytis cinerea): 1.5 µM; MIC (μM) Botrytis cinerea (Botrytis cinerea): 6 µM (≈ 11.8 µg/mL); SFM + 2 mM CaCl2 MIC (Botrytis cinerea): >6 µM; SFM + 100 mM KCl MIC (Botrytis cinerea): >6 µM; SFM + 100 mM NaCl MIC (Botrytis cinerea): 6 µM; SFM MIC (Botrytis cinerea): 6 µM
C[C@@H](O)[C@H](NC(=O)[C@H](CS)NC(=O)[C@H](Cc1c[nH]c2ccccc12)NC(=O)[C@H](CS)NC(=O)[C@H](CCCNC(=N)N)NC(=O)[C@H](Cc1ccccc1)NC(=O)[C@H](CC(=O)O)NC(=O)[C@H](CC(=O)O)NC(=O)[C@H](CCCNC(=N)N)NC(=O)[C@H](CS)NC(=O)[C@H](CCCNC(=N)N)NC(=O)CN)C(=O)N[C@@H](CCCCN)C(=O)N[C@@H](CC(N)=O)C(=O)N[C@@H](CS)C(=O)O [GMA1C, reference compound] (H-GRCRDDFRCWCTKNC-OH; N-terminus assumed)	–	>12	>12	>12	>12	–
CC[C@H](C)[C@@H]1NC(=O)[C@H](CCCNC(=N)N)NC(=O)[C@@H](NC(=O)[C@H](CCCNC(=N)N)NC(=O)CNC(=O)[C@@H](N)CO)CSSC[C@@H](C(N)=O)NC(=O)[C@H](CC(N)=O)NC(=O)[C@H](CCCCN)NC(=O)[C@H]([C@@H](C)O)NC(=O)[C@H](Cc2ccccc2)NC(=O)[C@H](Cc2ccc(O)cc2)NC(=O)[C@H](Cc2c[nH]c3ccccc23)NC(=O)[C@H](CCCNC(=N)N)NC(=O)[C@H](Cc2ccccc2)NC(=O)[C@H](CC(C)C)NC1=O [GMA1C_V3] (H-SGRCRILFRWYFTKNC-NH2; disulfide 4-16; N-terminus assumed)	–	6	>12	3	1.5 (≈ 3.07 µg/mL)	–
C[C@H](NC(=O)CN)C(=O)N[C@@H](CS)C(=O)N[C@@H](Cc1c[nH]cn1)C(=O)N[C@@H](CCCNC(=N)N)C(=O)N[C@@H](CCC(N)=O)C(=O)NCC(=O)N[C@@H](Cc1ccccc1)C(=O)NCC(=O)N[C@@H](Cc1ccccc1)C(=O)N[C@@H](C)C(=O)N[C@@H](CS)C(=O)N[C@@H](Cc1ccccc1)C(=O)N[C@@H](CS)C(=O)N[C@@H](Cc1ccc(O)cc1)C(=O)N[C@@H](CCCCN)C(=O)N[C@@H](CCCCN)C(=O)N[C@@H](CS)C(N)=O [GMA5CA_WT, reference compound] (H-GACHRQGFGFACFCYKKC-NH2; N-terminus assumed)	–	>12	>12	>12	6 (≈ 12.2 µg/mL)	–
CC(C)C[C@H](NC(=O)[C@H](CS)NC(=O)[C@H](C)NC(=O)CN)C(=O)N[C@@H](CCCCN)C(=O)N[C@@H](CC(N)=O)C(=O)N[C@@H](CCCNC(=N)N)C(=O)N[C@@H](Cc1c[nH]cn1)C(=O)N[C@@H](CO)C(=O)N[C@@H](CCCCN)C(=O)N[C@@H](Cc1c[nH]cn1)C(=O)N[C@@H](Cc1ccc(O)cc1)C(=O)NCC(=O)N[C@@H](CS)C(=O)N[C@@H](Cc1ccc(O)cc1)C(=O)N[C@@H](CS)C(=O)N[C@@H](Cc1ccc(O)cc1)C(=O)N[C@@H](Cc1ccc(O)cc1)C(=O)N[C@@H](CCCNC(=N)N)C(=O)N[C@@H](Cc1c[nH]cn1)C(=O)N[C@@H](CS)C(=O)N[C@@H](Cc1ccc(O)cc1)C(N)=O [GMAOe1C_WT, reference compound] (H-GACLKNRHSKHYGCYCYYRHCY-NH2; N-terminus assumed)	only effective at 6 μM	>12	6 to 12	3 to 6	3 (≈ 8.18 µg/mL)	–
CC(C)C[C@@H]1NC(=O)[C@@H](NC(=O)[C@H](C)NC(=O)CN)CSSC[C@@H](C(=O)N[C@@H](Cc2ccc(O)cc2)C(N)=O)NC(=O)[C@H](Cc2c[nH]cn2)NC(=O)[C@H](CCCNC(=N)N)NC(=O)[C@H](Cc2ccc(O)cc2)NC(=O)[C@H](Cc2ccc(O)cc2)NC(=O)[C@H](Cc2c[nH]c3ccccc23)NC(=O)[C@H](Cc2ccccc2)NC(=O)[C@H](Cc2ccccc2)NC(=O)CNC(=O)[C@H](Cc2ccc(O)cc2)NC(=O)[C@H](Cc2c[nH]cn2)NC(=O)[C@H](CCCCN)NC(=O)[C@H](CO)NC(=O)[C@H](Cc2c[nH]cn2)NC(=O)[C@H](CCCNC(=N)N)NC(=O)[C@H](CC(N)=O)NC(=O)[C@H](CCCCN)NC1=O [GMAOe1C_V4] (H-GACLKNRHSKHYGFFWYYRHCY-NH2; disulfide 3-21; N-terminus assumed)	completely abrogated gray mold symptoms	6 to 12	6 to 12	6	1.5 (≈ 4.25 µg/mL)	–
C[C@@H](O)[C@H](NC(=O)[C@H](CS)NC(=O)[C@H](Cc1ccccc1)NC(=O)[C@H](CS)NC(=O)[C@H](CCCNC(=N)N)NC(=O)[C@H](CCCNC(=N)N)NC(=O)[C@H](CCCNC(=N)N)NC(=O)[C@H](Cc1ccccc1)NC(=O)CNC(=O)[C@H](CCCNC(=N)N)NC(=O)[C@H](CS)NC(=O)[C@H](CCCNC(=N)N)NC(=O)CN)C(=O)N[C@H](C(=O)N[C@@H](Cc1c[nH]cn1)C(=O)N[C@@H](CS)C(N)=O)[C@@H](C)O [GMA4AC] (H-GRCRGFRRRCFCTTHC-NH2)	–	–	–	–	3 (≈ 5.88 µg/mL)	–
N=C(N)NCCC[C@H](NC(=O)CNC(=O)[C@@H](N)Cc1ccccc1)C(=O)N[C@@H](CS)C(=O)N[C@@H](CCCNC(=N)N)C(=O)NCC(=O)N[C@@H](Cc1ccccc1)C(=O)N[C@@H](CCCNC(=N)N)C(=O)N[C@@H](CCCNC(=N)N)C(=O)N[C@@H](CCCNC(=N)N)C(=O)N[C@@H](CS)C(=O)N[C@@H](Cc1ccccc1)C(=O)N[C@@H](CS)C(=O)N[C@@H](Cc1c[nH]c2ccccc12)C(=O)N[C@@H](CCCNC(=N)N)C(=O)N[C@@H](Cc1c[nH]c2ccccc12)C(=O)N[C@@H](CS)C(=O)O [GMA4C_V4] (H-FGRCRGFRRRCFCWRWC-OH; N-terminus assumed)	–	–	–	–	–	B. cinerea MIC (Botrytis cinerea): 1.5 µM; MIC (μM) Botrytis cinerea (Botrytis cinerea): 3 µM (≈ 6.89 µg/mL); SFM + 2 mM CaCl2 MIC (Botrytis cinerea): 6 µM; SFM + 100 mM KCl MIC (Botrytis cinerea): 3 µM; SFM + 100 mM NaCl MIC (Botrytis cinerea): 3 µM; SFM MIC (Botrytis cinerea): 3 µM
CC(C)C[C@@H]1NC(=O)[C@@H](NC(=O)[C@H](C)NC(=O)CN)CSSC[C@@H](C(=O)N[C@@H](Cc2ccc(O)cc2)C(N)=O)NC(=O)[C@H](Cc2c[nH]cn2)NC(=O)[C@H](CCCNC(=N)N)NC(=O)[C@H](Cc2ccc(O)cc2)NC(=O)[C@H](Cc2ccc(O)cc2)NC(=O)[C@H](Cc2c[nH]c3ccccc23)NC(=O)[C@H](Cc2ccccc2)NC(=O)[C@H](Cc2c[nH]c3ccccc23)NC(=O)CNC(=O)[C@H](Cc2ccc(O)cc2)NC(=O)[C@H](Cc2c[nH]cn2)NC(=O)[C@H](CCCCN)NC(=O)[C@H](CO)NC(=O)[C@H](Cc2c[nH]cn2)NC(=O)[C@H](CCCNC(=N)N)NC(=O)[C@H](CC(N)=O)NC(=O)[C@H](CCCCN)NC1=O [GMAOe1C_V3] (H-GACLKNRHSKHYGWFWYYRHCY-NH2; disulfide 3-21; N-terminus assumed)	completely abrogated gray mold symptoms	3 to 6	6 to 12	2 to 3	1.5 (≈ 4.31 µg/mL)	Gray mold symptoms, drop inoculation assay (B. cinerea; peptide at 1.5 μM): more effective than GMAOe1C_V4 or GMAOe1C_WT
CC[C@H](C)[C@H](NC(=O)[C@H](CCCNC(=N)N)NC(=O)[C@H](CS)NC(=O)[C@H](CCCNC(=N)N)NC(=O)CNC(=O)[C@@H](N)CO)C(=O)N[C@@H](CC(C)C)C(=O)N[C@@H](Cc1ccccc1)C(=O)N[C@@H](CCCNC(=N)N)C(=O)N[C@@H](CS)C(=O)N[C@@H](Cc1ccccc1)C(=O)N[C@@H](CS)C(=O)N[C@H](C(=O)N[C@@H](CCCCN)C(=O)N[C@@H](CC(N)=O)C(=O)N[C@@H](CS)C(N)=O)[C@@H](C)O [GMA1C_V1] (H-SGRCRILFRCFCTKNC-NH2; N-terminus assumed)	–	–	>12	>6	>6	–
